In patent US12077503B2, “Substituted cyclic amides and their use as herbicides” (FMC CORPORATION, priority 2015, dated 2024):

Experiments:
Type in all cases: in vivo
[1] = system: blackgrass (Alopecurus myosuroides); experiment: Test A postemergence; details: Alopecurus myosuroides, post-emergence, 240 h, 125 g ai/ha, postemergence, visual injury rating after approximately 10 d; read-out: Blackgrass plant response rating (0 to 100 scale, 0 no effect, 100 complete control)
Outline: (§1)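 Preemergence soil spray on seeded pots or post-emergence spray on 1–2 leaf plants, in loam–sand blend. Greenhouse ~10 d. Visual rating 0–100 against untreated plants.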

[2] = system: pigweed (Amaranthus retroflexus); experiment: Test A postemergence; details: Amaranthus retroflexus, post-emergence, 240 h, 125 g ai/ha, postemergence, visual injury rating after approximately 10 d; read-out: Pigweed plant response rating (0 to 100 scale, 0 no effect, 100 complete control)
Outline: as §1

[3] = system: wheat (Triticum aestivum); experiment: Test A postemergence; details: Triticum aestivum, post-emergence, 240 h, 125 g ai/ha, postemergence, visual injury rating after approximately 10 d; read-out: Wheat plant response rating (0 to 100 scale, 0 no effect, 100 complete control)
Outline: as §1

[4] = system: corn (Zea mays); experiment: Test A postemergence; details: Zea mays, post-emergence, 240 h, 125 g ai/ha, postemergence, visual injury rating after approximately 10 d; read-out: Corn plant response rating (0 to 100 scale, 0 no effect, 100 complete control)
Outline: as §1

[5] = system: ryegrass, Italian (Italian ryegrass, Lolium multiflorum); experiment: Test A postemergence; details: Lolium multiflorum, post-emergence, 240 h, 125 g ai/ha, postemergence, visual injury rating after approximately 10 d; read-out: Ryegrass, Italian plant response rating (0 to 100 scale, 0 no effect, 100 complete control)
Outline: as §1

[6] = system: barnyardgrass (Echinochloa crus-galli); experiment: Test A postemergence; details: Echinochloa crus-galli, post-emergence, 240 h, 125 g ai/ha, postemergence, visual injury rating after approximately 10 d; read-out: Barnyardgrass plant response rating (0 to 100 scale, 0 no effect, 100 complete control)
Outline: as §1

[7] = system: ragweed (common ragweed, Ambrosia elatior); experiment: Test A postemergence; details: Ambrosia artemisiifolia, post-emergence, 240 h, 125 g ai/ha, postemergence, visual injury rating after approximately 10 d; read-out: Ragweed plant response rating (0 to 100 scale, 0 no effect, 100 complete control)
Outline: as §1

[8] = system: giant foxtail (Setaria faberii); experiment: Test A postemergence; details: Setaria faberi, post-emergence, 240 h, 125 g ai/ha, postemergence, visual injury rating after approximately 10 d; read-out: Foxtail, Giant plant response rating (0 to 100 scale, 0 no effect, 100 complete control)
Outline: as §1

[9] = system: Galium (catchweed bedstraw, Galium aparine); experiment: Test A postemergence; details: Galium, post-emergence, 240 h, 125 g ai/ha, postemergence, visual injury rating after approximately 10 d; read-out: Galium plant response rating (0 to 100 scale, 0 no effect, 100 complete control)
Outline: as §1

[10] = system: Kochia (Kochia scoparia); experiment: Test A postemergence; details: Bassia scoparia, post-emergence, 240 h, 125 g ai/ha, postemergence, visual injury rating after approximately 10 d; read-out: Kochia plant response rating (0 to 100 scale, 0 no effect, 100 complete control)
Outline: as §1

[11] = system: pigweed (Amaranthus retroflexus); experiment: Test A preemergence; details: Amaranthus retroflexus, pre-emergence, 240 h; for pest or weed control at 125 g/ha: 125 g ai/ha, preemergence, 0 to 100 scale where 0 is no effect and 100 is complete control, read-out: Pigweed plant response rating; for pest or weed control at 500 g/ha: 500 g ai/ha, Preemergence, visual injury vs untreated controls after approximately 10 d, read-out: Pigweed plant response rating (0 to 100 scale where 0 is no effect and 100 is complete control)
[12] = system: ryegrass, Italian (Italian ryegrass, Lolium multiflorum); experiment: Test A preemergence; details: Lolium multiflorum, pre-emergence, 240 h; for pest or weed control at 125 g/ha: 125 g ai/ha, preemergence, 0 to 100 scale where 0 is no effect and 100 is complete control, read-out: Ryegrass, Italian plant response rating; for pest or weed control at 500 g/ha: 500 g ai/ha, Preemergence, visual injury vs untreated controls after approximately 10 d, read-out: Ryegrass, Italian plant response rating (0 to 100 scale where 0 is no effect and 100 is complete control)
Outline: as §1

[13] = system: barnyardgrass (Echinochloa crus-galli); experiment: Test A preemergence; details: Echinochloa crus-galli, pre-emergence, 240 h; for pest or weed control at 125 g/ha: 125 g ai/ha, preemergence, 0 to 100 scale where 0 is no effect and 100 is complete control, read-out: Barnyardgrass plant response rating; for pest or weed control at 500 g/ha: 500 g ai/ha, Preemergence, visual injury vs untreated controls after approximately 10 d, read-out: Barnyardgrass plant response rating (0 to 100 scale where 0 is no effect and 100 is complete control)
Outline: as §1

[14] = system: ragweed (common ragweed, Ambrosia elatior); experiment: Test A preemergence; details: Ambrosia artemisiifolia, pre-emergence, 240 h; for pest or weed control at 125 g/ha: 125 g ai/ha, preemergence, 0 to 100 scale where 0 is no effect and 100 is complete control, read-out: Ragweed plant response rating; for pest or weed control at 500 g/ha: 500 g ai/ha, Preemergence, visual injury vs untreated controls after approximately 10 d, read-out: Ragweed plant response rating (0 to 100 scale where 0 is no effect and 100 is complete control)
Outline: as §1

[15] = system: giant foxtail (Setaria faberii); experiment: Test A preemergence; details: Setaria faberi, pre-emergence, 240 h; for pest or weed control at 125 g/ha: 125 g ai/ha, preemergence, 0 to 100 scale where 0 is no effect and 100 is complete control, read-out: Foxtail, Giant plant response rating; for pest or weed control at 500 g/ha: 500 g ai/ha, Preemergence, visual injury vs untreated controls after approximately 10 d, read-out: Foxtail, Giant plant response rating (0 to 100 scale where 0 is no effect and 100 is complete control)
Outline: as §1

[16] = system: Kochia (Kochia scoparia); experiment: Test A preemergence; details: Bassia scoparia, pre-emergence, 240 h; for pest or weed control at 125 g/ha: 125 g ai/ha, preemergence, 0 to 100 scale where 0 is no effect and 100 is complete control, read-out: Kochia plant response rating; for pest or weed control at 500 g/ha: 500 g ai/ha, Preemergence, visual injury vs untreated controls after approximately 10 d, read-out: Kochia plant response rating (0 to 100 scale where 0 is no effect and 100 is complete control)
Outline: as §1

Row | SMILES | pest or weed control at 125 g/ha [1] | pest or weed control at 125 g/ha [2] | plant injury at 125 g/ha [3] | plant injury at 125 g/ha [4] | pest or weed control at 125 g/ha [5] | pest or weed control at 125 g/ha [6] | pest or weed control at 125 g/ha [7] | pest or weed control at 125 g/ha [8] | pest or weed control at 125 g/ha [9] | pest or weed control at 125 g/ha [10] | pest or weed control at 125 g/ha [11] | pest or weed control at 500 g/ha [11] | pest or weed control at 125 g/ha [12] | pest or weed control at 500 g/ha [12] | pest or weed control at 125 g/ha [13] | pest or weed control at 500 g/ha [13] | pest or weed control at 125 g/ha [14] | pest or weed control at 500 g/ha [14] | pest or weed control at 125 g/ha [15] | pest or weed control at 500 g/ha [15] | other results
1 | CN1CC(c2cccc(C=O)c2)C(C(=O)Nc2ccccc2F)C1=O (stereo not drawn) [Compound 844] | 0% | 0% | 0% | 0% | 0% | 0% | 0% | 0% | 0% | 0% | 0% | 0% | 0% | 0% | 0% | 20% | 0% | 0% | 0% | 30% | pest or weed control at 125 g/ha [16]: 0%; pest or weed control at 500 g/ha [16]: 0%
2 | COc1cc([C@H]2CN(C)C(=O)[C@@H]2C(=O)Nc2ccccc2SC)cc(C(F)(F)F)c1 [Compound 857] | 30% | 30% | 30% | 40% | 20% | 70% | 0% | 70% | 20% | 20% | 60% | 70% | 40% | 60% | 90% | 90% | 0% | 30% | 80% | 90% | pest or weed control at 125 g/ha [16]: 0%; pest or weed control at 500 g/ha [16]: 30%
3 | CN1C[C@H](c2cccc(F)c2)[C@@H](C(=O)Nc2ccccc2F)C1=O [Compound 822] | 0% | 0% | 0% | 20% | 20% | 90% | 0% | 90% | 20% | 0% | 0% | 50% | 20% | 40% | 90% | 100% | 0% | 30% | 90% | 100% | pest or weed control at 125 g/ha [16]: 70%; pest or weed control at 500 g/ha [16]: 80%
